Source: ChEMBL document CHEMBL2040837, “Synthesis and cytotoxic activity of some 17-picolyl and 17-picolinylidene androstane derivatives” (Eur J Med Chem, 2012)

How the values were obtained:
MRC5 = assay: Cytotoxicity against human MRC5 cells […] by SRB assay; format: cell-based
PC-3 = assay: Cytotoxicity against AR-negative human PC3 cells after 48 hr by SRB assay; conditions: PC-3, 48 h
MCF7 = assay: Cytotoxicity against ER-positive human MCF7 cells after 48 hr by SRB assay; conditions: MCF7, 48 h
MDA-MB-231 [1] = assay: Cytotoxicity against ER-negative human MDA-MB-231 cells after 48 hr by SRB assay; conditions: for IC50: MDA-MB-231, 48 h
HeLa = assay: Cytotoxicity against human HeLa cells […] by SRB assay; format: functional, cell-based
HT-29 = assay: Cytotoxicity against human HT-29 cells […] by SRB assay; format: functional, cell-based
MDA-MB-231 [2] = assay: Cytotoxicity against ER-negative human MDA-MB-231 cells at <1 uM after 48 hr by SRB assay
MDA-MB-231 [3] = assay: Ratio of 17alpha-picolyl-androst-5-en 3beta, 17beta-diol IC50 to compound IC50 cytotoxicity against ER-negative human MDA-MB-231 cells after 48 hr by SRB assay

| Structure (SMILES) | IC50 (MRC5) | IC50 (PC-3) | IC50 (MCF7) | Activity (MDA-MB-231 [1]) | IC50 (MDA-MB-231 [1]) | IC50 (HeLa) | IC50 (HT-29) | Activity (MDA-MB-231 [2]) | Ratio IC50 (MDA-MB-231 [3]) |
| --- | --- | --- | --- | --- | --- | --- | --- | --- | --- |
| C[C@]12CCC(=O)C(O)=C1C=C[C@@H]1[C@@H]2CC[C@]2(C)/C(=C/c3ccccn3)CC[C@@H]12 | > 100 µM | > 100 µM | > 100 µM | Dose-dependent effect | 9.3 µM |  |  |  |  |
| C[C@]12CCC(=O)C=C1C(=O)C[C@@H]1[C@@H]2CC[C@@]2(C)[C@H]1CC[C@@]2(O)Cc1ccccn1 | > 100 µM | 4.3 µM | > 100 µM | Dose-dependent effect | > 100 µM | > 100 µM | > 100 µM |  |  |
| CC(=O)O[C@@H]1C=C2CC[C@@H]3[C@H](CC[C@@]4(C)[C@H]3CC[C@@]4(O)Cc3ccccn3)[C@@]2(C)CC1 | > 100 µM | 31.3 µM | > 100 µM | Dose-dependent effect | 10.2 µM | > 100 µM | 10.6 µM |  |  |
| COC1=C2CC[C@@H]3[C@H](CC[C@@]4(C)[C@H]3CC[C@@]4(O)Cc3ccccn3)[C@@]2(C)CCC1=O | > 100 µM | 54.8 µM | > 100 µM | Dose-dependent effect | 42.6 µM | 19.1 µM | > 100 µM |  |  |
| C[C@]12CCC=CC1=CC[C@@H]1[C@@H]2CC[C@@]2(C)[C@H]1CC[C@@]2(O)Cc1ccccn1 | > 100 µM | 24.7 µM | 17.4 µM | Dose-dependent effect | 2.3 µM | 27.5 µM | 11.7 µM |  |  |
| COc1cccc2c1C(=O)c1c(O)c3c(c(O)c1C2=O)C[C@@](O)(C(=O)CO)C[C@@H]3O[C@H]1C[C@H](N)[C@H](O)[C@H](C)O1 [DOXORUBICIN] | 0.12 µM | 95.6 µM | 0.75 µM | Dose-dependent effect | 0.12 µM | 1.17 µM | 0.32 µM |  |  |
| C[C@]12CCC=CC1=CC[C@@H]1[C@@H]2CC[C@]2(C)/C(=C/c3ccccn3)CC[C@@H]12 | > 100 µM | 19.9 µM | 55.8 µM | Dose-dependent effect | 4.6 µM | 23.3 µM | 1.8 µM |  |  |
| C[C@]12CC[C@H](O)C=C1CC[C@@H]1[C@@H]2CC[C@@]2(C)[C@H]1CC[C@@]2(O)Cc1ccccn1 | > 100 µM | 22.3 µM | > 100 µM | Dose-dependent effect | 3.8 µM | 26.9 µM | > 100 µM |  |  |
| C[C@]12CCC(=O)C(O)=C1C=C[C@@H]1[C@@H]2CC[C@@]2(C)[C@H]1CC[C@@]2(O)Cc1ccccn1 | > 100 µM | 25.6 µM | 3.6 µM | Dose-dependent effect | 1.2 µM | 36.6 µM | > 100 µM |  |  |
| C[C@]12CCC(=O)C(O)=C1CC[C@@H]1[C@@H]2CC[C@]2(C)C(=O)CC[C@@H]12 [FORMESTANE] | > 100 µM | 48.4 µM | > 100 µM | Dose-dependent effect | 55.5 µM | 5.55 µM | > 100 µM |  |  |
| C[C@]12CC[C@H](O)CC1=CC[C@@H]1[C@@H]2CC[C@@]2(C)[C@H]1CC[C@@]2(O)Cc1ccccn1 | > 100 µM | 6.3 µM | > 100 µM | Dose-dependent effect | 96.1 µM |  |  |  |  |
| C[C@]12CC[C@H]3[C@@H](C[C@@H]4O[C@@]45C[C@@H](O)CC[C@]35C)[C@@H]1CC[C@@]2(O)Cc1cccc[n+]1[O-] | > 100 µM | 33.6 µM | > 100 µM | Dose-dependent effect | 7.5 µM | 33.5 µM | 25.8 µM |  |  |
| COC1=C2CC[C@@H]3[C@H](CC[C@]4(C)/C(=C/c5ccccn5)CC[C@@H]34)[C@@]2(C)CCC1=O | > 100 µM | 34.1 µM | > 100 µM | Dose-dependent effect | 4.1 µM | 15.3 µM | 56 µM | 10% |  |
| C[C@]12CC[C@H](O)[C@@H](O)C1=CC[C@@H]1[C@@H]2CC[C@@]2(C)[C@H]1CC[C@@]2(O)Cc1ccccn1 | > 100 µM | 21.3 µM | > 100 µM | Dose-dependent effect | 5.6 µM | 21.3 µM | 2.6 µM |  | 17 |
| C[C@]12CC[C@H](O)C=C1CC[C@@H]1[C@@H]2CC[C@]2(C)/C(=C/c3ccccn3)CC[C@@H]12 | > 100 µM | 10.1 µM | > 100 µM | Dose-dependent effect | > 100 µM |  |  |  |  |
| C[C@]12CC[C@H](O)[C@H](O)C1=CC[C@@H]1[C@@H]2CC[C@@]2(C)[C@H]1CC[C@@]2(O)Cc1ccccn1 | > 100 µM | 52.1 µM | > 100 µM | Dose-dependent effect | 9 µM | 26.6 µM | 8 µM |  | 10 |
